Measured values from patent publication US20090123389A1, “Methods for modulating Th17 cell development in the treatment and prevention of cellulite” (priority 2007, published 2009).

Legend:
CD4+ CD25− T cells [1] = experiment: Th17 differentiation / IL-17 expression of activated CD4+ CD25− T cells (TGFβ plus IL-6); type: cell-based, mouse; details: for inhibition of IL-17 expression by HPLC-purified enantiomers: TGFβ plus IL-6, day 4, compared with racemic mix
Description: Low doses of halofuginone (HF) were tested to determine the ability of HF to enhance Treg differentiation, while suppressing Th17 differentiation. Naïve CD4+ T cells (CD4+ CD25−) were isolated from the spleen and peripheral lymph nodes of C57B/6 mice. T cells were then activated using anti-CD3 (0.3 μg/ml) and anti-CD28 (0.5 μg/ml) antibodies either in media alone (row 1, 4), TGFβ alone (3 ng/ml—row 2, 5) or TGFβ (3 ng/ml) plus IL-6 (30 ng/ml) (row 3, 6). […] T cells were cultured for 3 days and CD25 and Foxp3 expression (Treg marker genes) was determine by FACS staining and flow cytometric analyses. Simultaneously, T cells were harvested and re-stimulated for 4 hours using phorbol myristic acetate (PMA; 10 nM), Ionomycin (1 μM) and cytokine secretion was prevented using brefeldin A (20 μg/ml). Following stimulation, the production of IL-17 and IFNγ were determined by intracellular staining and analyzed via flow cytometry.
The dose-response of HF on CD4+ T cell proliferation, activation (i.e. CD25 upregulation) and differentiation to Th1, Th2 and Th17 lineages were evaluated. Purified murine naïve CD4+ CD25− T cells were activated using anti-CD3 (0.3 μg/ml) and anti-CD28 (0.5 μg/ml) antibodies and varying amounts of HF was added to each T cell culture condition (1.25 nM-40 nM). CD4+ T cell proliferation was monitored by CFSE dilution on day 3-post activation and CD25 expression was evaluated by FACS staining 2 days after activation. For T cell differentiation experiments, naïve T cells were activated as above in the presence of Th1 (IL-12 (20 ng/ml) plus anti-IL-4 (1.5 μg/ml)), Th2 (IL-4 (50 ng/ml) plus anti-IFNγ (0.5 mg/ml)) or Th17 (TGFβ (3 ng/ml) plus IL-6 (30 ng/ml)) polarizing conditions plus titrating amounts of HF (1.25 nM-40 nM) or MAZ1310 (40 nM). […] All cytokine expression was determined by intracellular staining following PMA+Ionomycin+Brefeldin A re-stimulation and all data was normalized to control (MAZ1310)-treated cells. […] Biol., vol. 80:1-8 (2006).
(§1) Cytokines, antibodies and T cell culture: Purified CD4^+ CD25^− T cells were activated in vitro as previously described (I. M. Djuretic et al., Nat Immunol 8, 145 (2007)) using 0.3 μg/ml hamster anti-mouse CD3 (clone 145-2C11) (ATCC—Manassas, Va.) and 0.5 μg/ml hamster anti-mouse CD28 (BD Pharmingen, San Jose, Calif.). Activated cell cultures were differentiated using the following combinations of cytokines and antibodies: iTreg=recombinant human TGFβ1 (3 ng/ml; R&D systems, Minneapolis, Minn.), Th17=TGFβ1 (3 ng/ml) plus recombinant mouse IL-6 (30 ng/ml, R&D systems). Th1 and Th2 differentiation was performed as previously described. (I. M. Djuretic et al., Nat Immunol 8, 145 (2007)). Human IL-2 supernatant (National Cancer Institute) was used in culture at 0.01 U/ml and was added at 48 hours-post activation when T cells were split into tissue culture wells lacking CD3 and CD28 antibodies, with the exception of Th17 cultures that were maintained in the absence of IL-2. All reagents were added at the time of T cell activation and again at 48-hours post activation unless indicated otherwise. For some experiments, purified CD4^+ CD25^− T cells, CD8^+ T cells or B cells were labeled with 1 μM CFSE (Invitrogen) prior to activation in accordance with manufacturers instructions.
MAZ1310 was generated by chemical derivatization of halofuginone and was used at equal concentrations as a negative control.

TGFβ signaling = TGFβ signaling in T and B cells (Smad phosphorylation, lymphocyte responses to TGFβ); type: cell-based, mouse; details: HF 10 nM (2.5-40 nM for Smad); SB-431542 10 μM
Description: DMSO, 10 nM HF, 10 nM MAZ1310 or 10 μM SB-431542 was added as indicated at the time of activation and intracellular cytokine staining was performed on expanded T cells on day 5 as in FIG. 14B
FIG. 15B is an illustration depicting the analysis of CD8^+ T cells that were activated in the presence or absence of TGFβ and cultured with DMSO, 10 nM HF, 10 nM MAZ1310 or 10 μM SB-431542. Expanded cells were restimulated on day 5 and intracellular staining was performed as above.
FIG. 15C is an illustration depicting the analysis of CFSE-labeled B cells that were activated by LPS stimulation in the presence or absence of TGFβ plus DMSO, 10 nM HF, 10 nM MAZ1310 or 10 μM SB-431542. Intracellular IL-6 production in B cells re-stimulated with PMA plus ionomycin, or cell-surface IgA expression was determined 4 days after activation by FACS analyses.
T cells were then activated in the presence or absence of 3 ng/ml TGFβ. Whole cell extracts were prepared after 1 hour of stimulation and western blot analyses were performed using the indicated antibodies.
Western blotting: Whole cell lysates were generated from T cells activated for the indicated times. For STAT3 and Smad2/3 western blots cells were harvested, washed in PBS and lysed in 50 mM Tris, pH 7.4, 0.1% SDS, 1% Triton-×100, 140 mM NaCl, 1 mM EDTA, 1 mM EGTA supplemented with protease inhibitors tablets (Roche—Germany), 1 mM NaF and 1 mM Na3VO4. […]

CD4+ CD25− T cells [2] = experiment: CD4+ T cell proliferation, CD25 upregulation, cytokine production, Th1/Th2/iTreg differentiation; type: cell-based, mouse; details: titrating concentrations of tunicamycin
Description: The dose-response of HF on CD4+ T cell proliferation, activation (i.e. CD25 upregulation) and differentiation to Th1, Th2 and Th17 lineages were evaluated. Purified murine naïve CD4+ CD25− T cells were activated using anti-CD3 (0.3 μg/ml) and anti-CD28 (0.5 μg/ml) antibodies and varying amounts of HF was added to each T cell culture condition (1.25 nM-40 nM). CD4+ T cell proliferation was monitored by CFSE dilution on day 3-post activation and CD25 expression was evaluated by FACS staining 2 days after activation. For T cell differentiation experiments, naïve T cells were activated as above in the presence of Th1 (IL-12 (20 ng/ml) plus anti-IL-4 (1.5 μg/ml)), Th2 (IL-4 (50 ng/ml) plus anti-IFNγ (0.5 mg/ml)) or Th17 (TGFβ (3 ng/ml) plus IL-6 (30 ng/ml)) polarizing conditions plus titrating amounts of HF (1.25 nM-40 nM) or MAZ1310 (40 nM). The percentage of Th17 cells, (IL-17^+ IFNγ^−) was evaluated on day 3 following activation, whereas the abundance of Th1 cells (IFNγ^+ IL-4) and Th2 cells (IL-4^+ IFNγ^−) was determined 5 days following activation. All cytokine expression was determined by intracellular staining following PMA+Ionomycin+Brefeldin A re-stimulation and all data was normalized to control (MAZ1310)-treated cells. […] Biol., vol. 80:1-8 (2006).
as §1
Detection of cytokine production: Cytokines secreted into media supernatant were measured using the mouse Th1/Th2 cytometric bead array (CBA, BD Pharmingen) in accordance with manufacturers instructions. Briefly, CD4^+ CD25^− T cells were activated in anti-CD3/anti-CD28-coated tissue culture wells and supernatants were collected at the indicated times. For detection of intracellular cytokines in murine cells, cultured T or B cells were stimulated with 10 nM PMA (Sigma) and […] (Sigma) for 4-5 hours in the presence of […] (Sigma). Stimulated cells were harvested, washed with PBS and fixed with PBS plus 4% paraformaldehyde at room temperature for 20 minutes. […]

[3] = tested on: unfolded protein response (Xbp-1 splicing); experiment: Xbp-1 splicing / ER stress response in activated T cells; details: tunicamycin 1 μg/ml or 10 nM HF, 4 hours

Molecule: O=C(CC1NCCCC1O)Cn1cnc2cc(Br)c(Cl)cc2c1=O (single isomer, unassigned) [D-enantiomer of HF]
- inhibition of IL-17 expression by HPLC-purified enantiomers (CD4+ CD25− T cells [1]): more potently than a racemic mix

Molecule: O=C(CC1NCCCC1O)Cn1cnc2cc(Br)c(Cl)cc2c1=O (single isomer, unassigned) [L-enantiomer]
- inhibition of IL-17 expression by HPLC-purified enantiomers (CD4+ CD25− T cells [1]): completely inactive

Molecule: N[C@H](CO)Cc1c[nH]c2ccccc12 [L-tryptophanol]
- IL-17 production (CD4+ CD25− T cells [1]; 0.2 mM L-tryptophanol, TGFβ plus IL-6): impaired IL-17 production

Molecule: CC(C)(C)OC(=O)N1CCC[C@H](O)[C@H]1CC(=O)Cn1cnc2cc(Br)c(Cl)cc2c1=O [MAZ1310]
- activity of HF derivative used as negative control (CD4+ CD25− T cells [1]; used at equal concentrations as HF): inactive

Molecule: NC(=O)c1ccc(-c2nc(-c3ccc4c(c3)OCO4)c(-c3ccccn3)[nH]2)cc1 [SB-431542]
- TGFβ-induced Smad phosphorylation and other lymphocyte responses to TGFβ (TGFβ signaling): abrogated all responses to TGFβ

Molecule: tunicamycin
- Th1 and Th2 differentiation (CD4+ CD25− T cells [2]): preferentially impaired
- IL-17 expression in T cells (CD4+ CD25− T cells [1]; titrating concentrations of tunicamycin): little influence
- Xbp-1 splicing [3]: together with Xbp-1 splicing
